# Results from patent publication US20130116286A1, “DROXIDOPA AND PHARMACEUTICAL COMPOSITION THEREOF FOR THE TREATMENT OF NEURALLY MEDIATED HYPOTENSION” (Chelsea Therapeutics, Inc., priority 2007, published 2013).
# Columns and labels:
# plasma norepinephrine = assay: Plasma norepinephrine concentration after dosing with droxidopa or droxidopa combinations in rats; assay type: in vivo, male Sprague Dawley rats; conditions: versus vehicle alone, 2 hours post-dosing, rat
# Method: The pharmacokinetic properties of droxidopa combinations useful in the methods of the invention were evaluated in male Sprague Dawley rats.
# Administration of droxidopa combinations was seen to affect plasma norepinephrine concentration in comparison to administration of droxidopa alone. Formulation 0 indicates administration of the vehicle alone without droxidopa or a droxidopa combination of the invention and provides a baseline comparative of plasma norepinephrine levels in an untreated subject.
# MAO-A than MAO-B = conditions: cited from earlier work
SMILES,increase in plasma norepinephrine concentration (plasma norepinephrine),selectivity for MAO-A than MAO-B (MAO-A than MAO-B)
"NC(C(=O)O)C(O)c1ccc(O)c(O)c1 (stereo not drawn) [droxidopa, threo-3-(3,4-dihydroxyphenyl)serine]",~5 fold,–
O=C(NCCN1CCOCC1)c1ccc(Cl)cc1 [moclobemide],–,approximately three times more selective for MAO-A than MAO-B
